#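 Five concentrations, 48 hours, 96-well plates. TGI marks complete inhibition of growth.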
# Experiments:
# Experiment in all cases: NCI tumour cell line growth inhibition, 48 h
# [1] = tested on: U251 CNS
# [2] = tested on: SF-295 CNS
# [3] = tested on: M14 melanoma
# [4] = tested on: HT29 colon
# [5] = tested on: 786-0 renal
# [6] = tested on: MALME-3M melanoma
# [7] = tested on: TK-10 renal
# [8] = tested on: OVCAR-5 ovarian
# [9] = tested on: PC-3 prostate
# [10] = tested on: HCT-116 colon
# [11] = tested on: HS 578T breast
# [12] = tested on: A498 renal
# [13] = tested on: SK-MEL-2 melanoma
# [14] = tested on: COLO 205 colon
# [15] = tested on: EKVX NSCLC
# [16] = tested on: NCI-H522 lung
# [17] = tested on: RXF 393 renal
# [18] = tested on: HOP-92 NSCLC
# [19] = tested on: SK-MEL-5 melanoma
# [20] = tested on: MCF7 breast
# [21] = tested on: SF-268 CNS
# [22] = tested on: MOLT-4 leukemia
# [23] = tested on: K-562 leukemia
# [24] = tested on: KM12 colon
# [25] = tested on: SK-OV-3 ovarian
# [26] = tested on: NCI-H460 lung
# [27] = tested on: UACC-257 melanoma
# [28] = tested on: SNB-19 CNS
# [29] = tested on: CCRF-CEM leukemia
# [30] = tested on: OVCAR-3 ovarian
# [31] = tested on: NCI-H226 lung
# [32] = tested on: HOP-62 NSCLC
# [33] = tested on: SNB-75 CNS
# [34] = tested on: HCT-15 colon
# [35] = tested on: HCC-2998 colon
# [36] = tested on: SK-MEL-28 melanoma
# [37] = tested on: ACHN renal
# [38] = tested on: BT-549 breast
# [39] = tested on: OVCAR-4 ovarian
# [40] = tested on: T-47D breast
# [41] = tested on: SN12C renal
# [42] = tested on: RPMI-8226 leukemia
# [43] = tested on: MDA-MB-435
# [44] = tested on: UO-31 renal
# [45] = tested on: IGROV1 ovarian
# [46] = tested on: HL-60(TB) leukemia
# [47] = tested on: A549 NSCLC
# [48] = tested on: MDA-MB-231 breast
# [49] = tested on: MDA-N
# [50] = tested on: OVCAR-8 ovarian
# [51] = tested on: UACC-62 melanoma
# [52] = tested on: DU-145 prostate
# [53] = tested on: NCI/ADR-RES ovarian
# [54] = tested on: CAKI-1 renal
# [55] = tested on: SF-539 CNS
# [56] = tested on: NCI-H23 lung
# [57] = tested on: SR leukemia
# [58] = tested on: DMS 114 small cell lung
# [59] = tested on: LXFL 529 NSCLC
# [60] = tested on: SNB-78 CNS
# [61] = tested on: KM20L2 colon
# [62] = tested on: DMS 273 small cell lung
# [63] = tested on: SW-620 colon
# [64] = tested on: M19-MEL melanoma
# [65] = tested on: LOX IMVI melanoma
# [66] = tested on: DLD-1 colon
# [67] = tested on: XF 498 CNS
structure (smiles),measurement,setting,value
CCCNC(=O)CCC(C)[C@H]1CCC2C3C(C[C@H](OC(C)=O)[C@@]21C)[C@@]1(C)CCC2(C[C@H]1C[C@H]3OC(C)=O)OOC1(CCC(C)CC1)OO2 (stereo partly specified),TGI,[1],30.6 µM
same,TGI,[2],52.5 µM
same,TGI,[3],> 100 µM
same,TGI,[4],> 100 µM
same,TGI,[5],33.4 µM
same,TGI,[6],40.3 µM
same,TGI,[7],58.8 µM
same,TGI,[8],87.4 µM
same,TGI,[9],> 100 µM
same,TGI,[10],> 100 µM
same,TGI,[11],> 100 µM
same,TGI,[12],74.5 µM
same,TGI,[13],52.9 µM
same,TGI,[14],29.9 µM
same,TGI,[15],30.6 µM
same,TGI,[16],33.3 µM
same,TGI,[17],> 100 µM
same,TGI,[18],1.98 µM
same,TGI,[19],28.6 µM
same,TGI,[20],> 100 µM
same,TGI,[21],50.8 µM
same,TGI,[22],> 100 µM
same,TGI,[23],> 100 µM
same,TGI,[24],20.2 µM
same,TGI,[25],> 100 µM
same,TGI,[26],71.2 µM
same,TGI,[27],90.9 µM
same,TGI,[28],> 100 µM
same,TGI,[29],2.16 µM
same,TGI,[30],18.5 µM
same,TGI,[31],> 100 µM
same,TGI,[32],3.47 µM
same,TGI,[33],53.5 µM
same,TGI,[34],> 100 µM
same,TGI,[35],79.1 µM
same,TGI,[36],> 100 µM
same,TGI,[37],4.08 µM
same,TGI,[38],60.5 µM
same,TGI,[39],33.9 µM
same,TGI,[40],38.4 µM
same,TGI,[41],> 100 µM
same,TGI,[42],19.4 µM
same,TGI,[43],39.5 µM
same,TGI,[44],2.42 µM
same,TGI,[45],4.36 µM
same,TGI,[46],32.4 µM
same,TGI,[47],5.26 µM
same,TGI,[48],98.4 µM
same,TGI,[49],28.6 µM
same,TGI,[50],48.3 µM
same,TGI,[51],> 100 µM
same,TGI,[52],21.2 µM
same,TGI,[53],40.5 µM
same,TGI,[54],5.14 µM
same,TGI,[55],33.8 µM
same,TGI,[56],18.7 µM
same,TGI,[57],36.5 µM
Cc1cc(N(CCC#N)CCC#N)ccc1/C=C1N=C(/C=C/c2ccccc2)OC(=O)N\1,TGI,[1],> 100 µM
same,TGI,[2],41.3 µM
same,TGI,[3],> 100 µM
same,TGI,[4],> 100 µM
same,TGI,[5],> 100 µM
same,TGI,[6],> 100 µM
same,TGI,[7],> 100 µM
same,TGI,[8],> 100 µM
same,TGI,[10],> 100 µM
same,TGI,[12],> 100 µM
same,TGI,[13],> 100 µM
same,TGI,[14],> 100 µM
same,TGI,[58],> 100 µM
same,TGI,[15],> 100 µM
same,TGI,[16],> 100 µM
same,TGI,[17],> 100 µM
same,TGI,[19],> 100 µM
same,TGI,[21],> 100 µM
same,TGI,[22],> 100 µM
same,TGI,[23],> 100 µM
same,TGI,[59],> 100 µM
same,TGI,[24],> 100 µM
same,TGI,[25],> 100 µM
same,TGI,[26],> 100 µM
same,TGI,[27],> 100 µM
same,TGI,[28],> 100 µM
same,TGI,[29],> 100 µM
same,TGI,[60],> 100 µM
same,TGI,[30],> 100 µM
same,TGI,[31],> 100 µM
same,TGI,[61],> 100 µM
same,TGI,[32],> 100 µM
same,TGI,[33],> 100 µM
same,TGI,[34],> 100 µM
same,TGI,[35],> 100 µM
same,TGI,[36],> 100 µM
same,TGI,[37],> 100 µM
same,TGI,[62],> 100 µM
same,TGI,[41],> 100 µM
same,TGI,[42],> 100 µM
same,TGI,[44],> 100 µM
same,TGI,[45],> 100 µM
same,TGI,[46],> 100 µM
same,TGI,[47],> 100 µM
same,TGI,[50],> 100 µM
same,TGI,[63],> 100 µM
same,TGI,[64],> 100 µM
same,TGI,[51],> 100 µM
same,TGI,[65],> 100 µM
same,TGI,[66],> 100 µM
same,TGI,[67],> 100 µM
same,TGI,[54],> 100 µM
same,TGI,[55],> 100 µM
same,TGI,[56],> 100 µM

# Source: PubChem BioAssay (NCI)
